Measurements as given in patent publication US20220177477A1 (Central China Normal University, priority 2019, published 2022).

How the values were obtained:
TRKB = biological target: T1, TRKB (Homo sapiens, UniProt Q16620); test: In vitro biochemical HTRF KinEASE kinase inhibition, TRKB; conditions: wild-type kinase, final ATP 2.56 μmol/L
T1 construct: purchased Carna Biosciences 08-187
Protocol: The material and the method are as follows: wild-type kinases such as TRKA, TRKB and TRKC, and mutant kinases such as TRKA-G595R, TRKA-G667C, TRKA-F589L, TRKC-G623R and TRKC-G696A, and are derived from Carna Biosciences 08-186, 08-187, 08-197; HTRF KinEASE TKkit (Cisbio 62TKO PEC); 384 well plates (Greiner corporation); ATP (Life technologies PV 3227), MgCl2 (sigma); PHERAstar FS Multifunctional microplate reader (BMG Co.); low speed centrifuge (StaiteXiangyi corporation); incubator (Binder company).
Preparing a compound working solution: the dispensed compounds were removed from the freezer prior to testing and diluted to 100× concentration with pure DMSO; then the compound was diluted to the desired concentration of 4× with deionized water;
Preparation of 1.33× enzyme buffer (enzyme buffer): 5× enzyme buffer (from HTRF kit) was diluted to 1.33× with deionized water and the corresponding ingredients were added at a final concentration of 1.33×: 1.33 mmol/L Dithiothreitol (DTT), 1.33 mmol/L MnCl2, 6.65 mmol/L MgCl2 and 39.9 nmol/L SEB;
Preparation of a kinase working solution: TRKA, TRKB and TRKC were diluted with 1.33× enzyme buffer to the required concentrations of 2× of 0.404 ng/μL, 0.304 ng/μL and 0.236 ng/μL, respectively;
Preparing a substrate working solution: a mixture of TK Substrate Blr diluted to the desired final concentration of 4× (from HTRF kit) and ATP (10 mM) with 1.33× enzyme buffer; the final ATP concentrations for TRKA, TRKB, and TRKC were: 3.727 μmol/L, 2.56 μmol/L and 2.526 μmol/L. The TK Substrate-biotin (from HTRF KinEASE TKkit) final concentrations were all: 0.2 μmol/L.
Preparing a detection working solution: 16.67 μmol/L of Streptavidin-XL665 (Streptavidin-XL 665) were diluted to the desired final concentration of 4× with HTRF test buffer and then mixed with an equal volume of Antibody-europium Cryptate (Antibody-Cryptate) (both from HTRF kits).
An enzyme reaction step: add 4 μL of kinase working solution to each well of a low volume 384 microwell plate along with 4 μL of 1.33× enzyme buffer as a Negative control (Negative); add 2 μl of compound working solution to the wells, while adding 2 μl of […] aqueous solution as a zero compound concentration control (i.e., Positive control, Positive); incubating at 25° C. for 5 min; add 2 μL of substrate working solution to the wells to start the enzymatic reaction, shake the reaction for 30 min at 37° C.
HTRF reagent detection step: adding […] to the hole to terminate the reaction; reacting for 1 h at 25° C.;
Reading of HTRF signal: the PHERAstar FS reading is adopted to detect signals, and the corresponding setting of the instrument is as follows:
For the raw data read out per well, the ratio=665 nm/620 nm;
Calculation of inhibition rate:
Calculation of IC50 values: with the logarithm of the compound concentration as abscissa and the inhibition as ordinate, a non-linear curve was fitted in GraphPad Prism 5: log (inhibitor) vs. response—Variable slope, and calculating the concentration of the compound to be detected, namely IC50, when the enzyme activity inhibition rate is 50%.

[1] = Drug metabolism study in rats, oral administration; conditions: rat
[2] = Drug metabolism study in rats, intravenous administration; conditions: rat, plasma, iv, 1 mg/kg
TRKA = biological target: T2, TRKA (Homo sapiens, UniProt P04629); test: In vitro biochemical HTRF KinEASE kinase inhibition, TRKA; conditions: wild-type kinase, final ATP 3.727 μmol/L; read-out: TRKA IC50
T2 construct: purchased Carna Biosciences 08-186

TRKC = biological target: T3, TRKC (Homo sapiens, UniProt Q16288); test: In vitro biochemical HTRF KinEASE kinase inhibition, TRKC; conditions: wild-type kinase, final ATP 2.526 μmol/L
T3 construct: purchased Carna Biosciences 08-197
T3 sequence (Q16288 32-825 isoform Q16288-3 limits assumed): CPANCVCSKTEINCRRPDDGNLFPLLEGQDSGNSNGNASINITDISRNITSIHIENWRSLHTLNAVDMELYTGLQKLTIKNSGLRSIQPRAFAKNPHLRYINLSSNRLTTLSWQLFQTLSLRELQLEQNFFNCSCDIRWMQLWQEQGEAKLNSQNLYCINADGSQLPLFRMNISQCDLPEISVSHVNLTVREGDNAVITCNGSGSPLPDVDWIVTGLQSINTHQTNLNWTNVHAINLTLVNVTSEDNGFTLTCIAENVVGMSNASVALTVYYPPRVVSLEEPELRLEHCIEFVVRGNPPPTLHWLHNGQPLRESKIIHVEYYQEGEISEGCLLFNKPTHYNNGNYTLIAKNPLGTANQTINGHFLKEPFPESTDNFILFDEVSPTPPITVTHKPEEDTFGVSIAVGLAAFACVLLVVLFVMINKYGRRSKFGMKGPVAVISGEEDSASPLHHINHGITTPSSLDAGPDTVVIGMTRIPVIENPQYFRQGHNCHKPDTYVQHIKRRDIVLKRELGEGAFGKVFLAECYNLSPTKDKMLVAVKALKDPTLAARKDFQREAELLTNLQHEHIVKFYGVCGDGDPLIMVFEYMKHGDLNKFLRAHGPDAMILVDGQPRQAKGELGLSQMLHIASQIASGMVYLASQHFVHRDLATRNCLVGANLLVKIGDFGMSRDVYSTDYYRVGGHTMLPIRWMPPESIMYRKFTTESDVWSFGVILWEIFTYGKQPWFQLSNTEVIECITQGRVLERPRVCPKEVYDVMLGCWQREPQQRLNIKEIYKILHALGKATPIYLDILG

T2 sequence (P04629 33-796): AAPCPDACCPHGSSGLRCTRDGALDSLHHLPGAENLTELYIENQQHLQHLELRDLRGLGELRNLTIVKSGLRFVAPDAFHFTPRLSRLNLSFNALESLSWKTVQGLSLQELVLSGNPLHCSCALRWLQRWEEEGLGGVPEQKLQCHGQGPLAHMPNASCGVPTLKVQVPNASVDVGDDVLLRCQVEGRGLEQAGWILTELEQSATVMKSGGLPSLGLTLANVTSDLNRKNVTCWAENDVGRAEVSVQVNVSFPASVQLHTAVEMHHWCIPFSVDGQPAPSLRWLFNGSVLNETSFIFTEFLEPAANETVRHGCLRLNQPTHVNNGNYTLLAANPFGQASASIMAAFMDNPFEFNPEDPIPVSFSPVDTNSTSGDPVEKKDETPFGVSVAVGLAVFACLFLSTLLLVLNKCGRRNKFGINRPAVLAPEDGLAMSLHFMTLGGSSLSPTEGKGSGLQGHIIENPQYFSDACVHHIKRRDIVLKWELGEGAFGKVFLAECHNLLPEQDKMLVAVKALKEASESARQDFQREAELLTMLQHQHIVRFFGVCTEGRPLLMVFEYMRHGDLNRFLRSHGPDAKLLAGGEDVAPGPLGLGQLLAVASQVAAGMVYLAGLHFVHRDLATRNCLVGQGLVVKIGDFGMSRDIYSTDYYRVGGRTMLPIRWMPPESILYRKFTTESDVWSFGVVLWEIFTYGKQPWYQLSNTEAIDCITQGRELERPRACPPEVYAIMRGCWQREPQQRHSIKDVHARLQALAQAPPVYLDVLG
T1 sequence (Q16620 32-822): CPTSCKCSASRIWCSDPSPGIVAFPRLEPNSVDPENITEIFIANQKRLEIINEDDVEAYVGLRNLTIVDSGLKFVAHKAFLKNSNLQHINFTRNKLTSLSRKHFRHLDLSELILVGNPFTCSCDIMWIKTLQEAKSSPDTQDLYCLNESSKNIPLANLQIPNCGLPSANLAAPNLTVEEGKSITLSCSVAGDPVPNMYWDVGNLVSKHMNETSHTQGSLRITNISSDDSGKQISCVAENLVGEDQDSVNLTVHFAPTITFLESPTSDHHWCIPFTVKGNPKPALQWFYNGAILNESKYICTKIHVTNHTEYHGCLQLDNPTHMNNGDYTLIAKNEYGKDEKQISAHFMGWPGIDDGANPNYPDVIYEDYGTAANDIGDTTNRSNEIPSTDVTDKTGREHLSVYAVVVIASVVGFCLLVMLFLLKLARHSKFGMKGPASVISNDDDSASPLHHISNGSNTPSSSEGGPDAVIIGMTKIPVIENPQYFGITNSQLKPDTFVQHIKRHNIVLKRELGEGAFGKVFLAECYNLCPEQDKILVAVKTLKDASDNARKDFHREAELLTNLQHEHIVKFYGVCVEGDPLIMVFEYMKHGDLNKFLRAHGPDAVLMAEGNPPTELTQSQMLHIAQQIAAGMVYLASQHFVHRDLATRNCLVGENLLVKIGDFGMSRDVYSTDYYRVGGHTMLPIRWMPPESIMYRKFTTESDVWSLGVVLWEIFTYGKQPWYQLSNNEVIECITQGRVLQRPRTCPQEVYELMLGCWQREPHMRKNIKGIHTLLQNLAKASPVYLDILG

| SMILES | IC50 (TRKB) | IC50 (TRKA) | IC50 (TRKC) | other results |
| --- | --- | --- | --- | --- |
| C[C@@H](Nc1ccn2ncc(-c3cnn(C)c3)c2n1)c1cc(F)ccc1OCC(F)F [Compound 2, (R)-N-(1-(2-(2,2-difluoroethoxy)-5-fluorophenyl)ethyl)-3-(1-methyl-1H-pyrazol-4-yl) pyrazolo [1,5-a] pyrimidin-5-amine] | 2.8 nM | – | – | CL ([1]; oral 5 mg/kg): 168.7 mL/min/kg; Vz ([1]; oral 5 mg/kg): 37.61 L/kg; AUC(0-t) ([1]; plasma, po, 5 mg/kg): 533 ng·h/mL; Cmax ([1]; plasma, po, 5 mg/kg): 150 ng/mL; MRT last ([1]; plasma, po, 5 mg/kg): 2.62 h; Tmax ([1]; plasma, po, 5 mg/kg): 0.67 h; bioavailability ([1]; plasma, po, 5 mg/kg): 30.2%; half-life ([1]; plasma, po, 5 mg/kg): 2.85 h; AUC(0-t) [2]: 353 ng·h/mL; Cmax [2]: 298 ng/mL; MRT last [2]: 1.49 h; Vd [2]: 6.8 L/kg; clearance [2]: 46 mL/min/kg; half-life [2]: 1.71 h |
| CC(Nc1ccn2ncc(-c3cnn(C(F)F)c3)c2n1)c1cc(F)ccc1OCC(F)F (stereo not drawn) [Compound 3, N-(1-(2-(2,2-difluoroethoxy)-5-fluorophenyl)ethyl)-3-(1-(difluoromethyl)-1H-pyrazol-4-yl) pyrazolo [1,5-a] pyrimidin-5-amine] | 4.8 nM | 5.8 nM | 7.1 nM | – |
| CC(Nc1ccn2ncc(-c3cnn(C4CC4)c3)c2n1)c1cc(F)ccc1OCC(F)F (stereo not drawn) [Compound 4, 3-(1-cyclopropyl-1H-pyrazol-4-yl)-N-(1-(2-(2,2-difluoroethoxy)-5-fluorophenyl)ethyl) pyrazolo [1,5-a] pyrimidin-5-amine] | 15.9 nM | 12.2 nM | 24.9 nM | – |
| C[C@@H](Nc1ccn2ncc(-c3cnn(CC#N)c3)c2n1)c1cc(F)ccc1OCC(F)F [Compound 7] | 1.3 nM | 2.4 nM | 2.4 nM | – |
| CC(Nc1ccn2ncc(-c3cnn(C4CCCC4O)c3)c2n1)c1cc(F)ccc1OCC(F)F (stereo not drawn) [Compound 8, 2-(4-(5-((1-(2-(2,2-difluoroethoxy)-5-fluorophenyl)ethyl)amino)pyrazolo [1,5-a]pyrimidin-3-yl)-1H-pyrazol-1-yl) cyclopentan-1-ol] | 5.7 nM | 5.4 nM | 9.8 nM | – |
| C[C@@H](Nc1ccn2ncc(-c3cnn(C4CCCCO4)c3)c2n1)c1cc(F)ccc1OCC(F)F (stereo partly drawn) [Compound 10, N-((R)-1-(2-(2,2-difluoroethoxy)-5-fluorophenyl)ethyl)-3-(1-(tetrahydro-2H-pyran-2-yl)-1H-pyrazol-4-yl) pyrazolo [1,5-a] pyrimidin-5-amine] | 2.7 nM | 3.8 nM | 5.5 nM | – |
| CC(=O)n1cc(-c2cnn3ccc(N[C@H](C)c4cc(F)ccc4OCC(F)F)nc23)cn1 [Compound 12, (R)-1-(4-(5-((1-(2-(2,2-difluoroethoxy)-5-fluorophenyl)ethyl)amino)pyrazolo [1,5-a]pyrimidin-3-yl)-1H-pyrazol-1-yl) ethanone] | 3.5 nM | 3.3 nM | 4.7 nM | – |
| CC(Nc1ccn2ncc(-c3cn[nH]c3)c2n1)c1cc(F)cc(F)c1OCC(F)F (stereo not drawn) [Compound 14, N-(1-(2-(2,2-difluoroethoxy)-3,5-difluorophenyl)ethyl)-3-(1H-pyrazol-4-yl) pyrazolo [1,5-a] pyrimidin-5-amine] | 4.2 nM | 11.3 nM | 6.7 nM | – |
| CC(Nc1ccn2ncc(-c3cn[nH]c3)c2n1)c1ccccc1OCC(F)F (stereo not drawn) [Compound 16, N-(1-(2-(2,2-difluoroethoxy)phenyl)ethyl)-3-(1H-pyrazol-4-yl) pyrazolo [1,5-a] pyrimidin-5-amine] | 8.6 nM | 8.5 nM | 12.2 nM | – |
| CC(Nc1ccn2ncc(-c3cnn(C4CCCC4O)c3)c2n1)c1cc(F)ccc1O (stereo not drawn) [Compound a2-3, 4-fluoro-2-(1-((3-(1-(2-hydroxycyclopentyl)-1H-pyrazol-4-yl)pyrazolo [1,5-a]pyrimidin-5-yl)amino)ethyl) phenol] | 5.1 nM | 10.5 nM | 8.5 nM | – |
| C[C@@H](Nc1ccn2ncc(-c3cnn(C)c3)c2n1)c1cc(F)ccc1OCCF [Compound a10-17, (R)-N-(1-(5-fluoro-2-(2-fluoroethoxy)phenyl)ethyl)-3-(1-methyl-1H-pyrazol-4-yl) pyrazolo [1,5-a] pyrimidin-5-amine] | 1.5 nM | 2.3 nM | 15.1 nM | – |
| CC(Nc1ccn2ncc(-c3cnn(C)c3)c2n1)c1cc(F)ccc1OCC1CC1 (stereo not drawn) [Compound a26-38, N-(1-(2-(cyclopropylmethoxy)-5-fluorophenyl)ethyl)-3-(1-methyl-1H-pyrazol-4-yl) pyrazolo [1,5-a] pyrimidin-5-amine] | 6.7 nM | 11.5 nM | 9.9 nM | – |
| CC(Nc1ccn2ncc(-c3cnn(C)c3)c2n1)c1cc(F)ccc1OC1CCOC1 (stereo not drawn) [Compound a27-41, N-(1-(5-fluoro-2-((tetrahydrofuran-3-yl)oxy)phenyl)ethyl)-3-(1-methyl-1H-pyrazol-4-yl) pyrazolo [1,5-a] pyrimidin-5-amine] | 5.8 nM | 7.7 nM | 7.1 nM | – |
| CC(Nc1ccn2ncc(-c3cn[nH]c3)c2n1)c1cc(F)ccc1OCF (stereo not drawn) [Compound b3-6, N-(1-(5-fluoro-2-(fluoromethoxy)phenyl)ethyl)-3-(1H-pyrazol-4-yl) pyrazolo [1,5-a] pyrimidin-5-amine] | 13 nM | 18.1 nM | 15.5 nM | – |
| CC(Nc1ccn2ncc(-c3cn[nH]c3)c2n1)c1cc(F)ccc1OC(F)F (stereo not drawn) [Compound b4-7, N-(1-(2-(difluoromethoxy)-5-fluorophenyl)ethyl)-3-(1H-pyrazol-4-yl) pyrazolo [1,5-a] pyrimidin-5-amine] | 3.1 nM | 3.37 nM | 3.8 nM | – |
| CCOc1ccc(F)cc1C(C)Nc1ccn2ncc(-c3cn[nH]c3)c2n1 (stereo not drawn) [Compound b5-11, N-(1-(2-ethoxy-5-fluorophenyl)ethyl)-3-(1H-pyrazol-4-yl) pyrazolo [1,5-a]pyrimidin-5-amine] | 4.3 nM | 8.4 nM | 8.4 nM | – |
| CCCOc1ccc(F)cc1C(C)Nc1ccn2ncc(-c3cn[nH]c3)c2n1 (stereo not drawn) [Compound b9-33, N-(1-(5-fluoro-2-propoxyphenyl)ethyl)-3-(1H-pyrazol-4-yl) pyrazolo [1,5-a] pyrimidin-5-amine] | 5.5 nM | 6 nM | 12.2 nM | – |
| CC(Nc1ccn2ncc(-c3cn[nH]c3)c2n1)c1cc(F)ccc1OCCCF (stereo not drawn) [Compound b10-34, N-(1-(5-fluoro-2-(3-fluoropropoxy)phenyl)ethyl)-3-(1H-pyrazol-4-yl) pyrazolo [1,5-a] pyrimidin-5-amine] | 9.8 nM | 9.7 nM | 14.1 nM | – |
| CC(Nc1ccn2ncc(-c3cn[nH]c3)c2n1)c1cc(F)ccc1OC1CCCC1 (stereo not drawn) [Compound b13-39, N-(1-(2-(cyclopentyloxy)-5-fluorophenyl)ethyl)-3-(1H-pyrazol-4-yl) pyrazolo [1,5-a] pyrimidin-5-amine] | 5.9 nM | 7.9 nM | 8 nM | – |
| CC(Nc1ccn2ncc(-c3cn[nH]c3)c2n1)c1cc(F)ccc1OC1CCOC1 (stereo not drawn) [Compound b14-40, N-(1-(5-fluoro-2-((tetrahydrofuran-3-yl)oxy)phenyl)ethyl)-3-(1H-pyrazol-4-yl) pyrazolo [1,5-a] pyrimidin-5-amine] | 8.6 nM | 4.51 nM | 11.7 nM | – |
